Data as given in patent US11013690B2, “Esterification/saponification-based method for liposomal encapsulation of hydrophilic glucuronides” (priority 2016, dated 2021).

Tests used:
MDA-MB-468 tumors = test: In-vivo anti-tumor activity, MDA-MB-468 subcutaneous tumors; design: species or system NOD/SCID mice; settings: i.v. weekly x4, free 9AC 2 mg/kg, free 9AC-G 10 mg/kg; for mice survival: 9AC-G liposomes 10 mg/kg
Description: FIG. 41 illustrates the in-vivo anti-tumor activity of liposomal 9AC-G. NOD/SCID mice were inoculated subcutaneously with 10^7 MDA-MB-468 cells. When tumors reached 75 to 100 mm^3 the treatment started at one injection per week for a total of 4 treatments. Figure represents the tumor volume evolution. n=7, Error bars: SD. Differences in tumor sizes between groups were examined for statistical significance using one-way ANOVA followed by Dunnettt's multiple comparisons. Stars indicate significance; n.s=non-significant and p<0.0001 (***)
FIG. 42 illustrates the mice survival after treatment with 9AC, 9AC-G or 9AC-G liposomes. n=7, Error bars, SD
FIG. 44 illustrates the tumor growth of MDA-MB-468 human breast cancer cells (10^7 cells in 100 μL PBS) injected subcutaneously in twelve to sixteen-week old female NOD/SCID immunodeficient mice. When tumors reached sizes from 75 mm^3 to 100 mm^3, groups of 7 mice were treated at weekly intervals for four times with intravenous injections of 9AC-G (10 mg/kg) or doxorubicin liposomes (Doxisome®, 1 mg/kg). n=7, Error bars, SD. Differences in tumor sizes between groups were examined for statistical significance using one-way ANOVA followed by Dunnettt's multiple comparisons. Stars indicate significance; p<0.001 (**) and p<0.0001 (***)
Next, in an in-vive model of breast cancer in NOD/SCID mice, 10^7 MDA-MD468 cells were inoculated subcutaneously per mouse. The treatment was started when the tumors reached an average size of 75 to 100 mm^3. Mice were intravenously injected with 9AC-G liposomes at 10 mg/kg, free parental 9AC (2 mg/kg), or free 9AC-G (10 mg/kg). […] Appreciably, low toxicity was observed and the tumors were undetectable when treated with 9AC-G liposomes after 4 treatments for 6 over 7 mice, as shown in FIG. 41. […] We observed that the amount of activated parental drug 9AC was over 30 folds higher in the tumor than in the blood 24 hours after injection of 9AC-G liposomes (FIG. 43). This phenomenon is likely due to the enhanced permeability and retention effect (EPR) by which nanoparticles accumulate and are retained in tumor through leaky blood tumor vasculature.

[1] = Octanol-to-water partitioning assay; type: physicochemical; settings: 1-octanol / citric acid pH 5, room temperature
Method: FIG. 4 illustrates the octanol to water distribution of glucuronides and glucuronide-mE. Glucuronides and glucuronide-mE were incubated overnight in immiscible aqueous and organic phases (citric acid pH 5 and 1-octanol) under gentle shaking at room temperature. Samples from each phase were analyzed to characterize the distribution of the compounds. n=3-5
FIG. 5 illustrates the Log P of glucuronides and glucuronide-mE compounds in each phase of 1-octanol and citric acid pH 5 following the formula: log Poctanol/water=log ([solute]octanol/[solute]water). n=3-5. Error bars, SD
9-aminocamptothecin glucuronide (9AC-G), 5,6-dihydro-4H-benzo[de]quinoline-camptothecin-β-D-glucuronide (BQC-G) and 4-methylumbelliferyl-β-D-glucuronide (4MU-G) can be incubated in methanol in the presence of a strong acid (sulfuric acid) as a catalyzer (FIG. 2).
Distribution of the different compounds were measured by dilution in a 1:1 volume of octanol and 100 mM citric acid buffer at pH 5 (FIG. 4). The solutions were gently stirred for 24 hours at room temperature, spun down at 2,500×g and glucuronides or glucuronide-mE in each phase was quantified by HPLC and the partition coefficients were calculated as log Poctanol/water=log ([solute]octanol/[solute]water) ([…]).

[2] = pH stability of 9AC-GmE (HPLC); type: physicochemical
Method: FIG. 6 illustrates the stability of 9-aminocamptothecin glucuronide methylester (9AC-GmE) at acidic pH. 9AC-GmE stability was monitored over time at 75° C., at pH 5. Quantification was done by HPLC at excitation and emission of 370 and 460 nm, respectively. (Abbreviations: 9AC, 9-aminocamptothecin; 9AC-G, 9-aminocamptothecin glucuronide; 9AC-GmE, methylester form of 9AC-G). n=3. Error bars, SD.
FIG. 7 illustrates the conversion of 9-aminocamptothecin glucuronide methylester (9AC-GmE) to 9-aminocamptothecin glucuronide (9AC-G) at basic pH. 9AC-GmE conversion to 9AC-G was monitored over time at 75° C., at pH 8.5. Quantification was done by HPLC at excitation and emission of 370 and 460 nm, respectively. n=3. Error bars, SD.
The behavior of 9AC-GmE was investigated at different pH and temperatures.

[3] = Pharmacokinetics of free vs liposomal 9AC-G in mice; type: in vivo, NOD/SCID mice; settings: 25 mg/kg intravenously, 9AC-G in serum by HPLC
Method: FIG. 39 illustrates the pharmacokinetics in mice of free 9AC-G compared to liposomal 9AC-G. A dose of 25 mg/kg of either free 9AC-G or liposomal 9AC-G was injected intravenously by the tail of NOD/SCID mice. Blood samples were collected at different times and the concentration of 9AC-G was determined by HPLC. n=3, Error bars, SD.
This example relates to a test of whether the liposomal formulation of 9AC-G could display prolonged pharmacokinetics when compared to free 9AC-G. Free and liposomal 9AC-G were delivered intravenously at 25 mg/kg to 12 to 16 weeks old female mice. The total serum concentrations of 9AC-G were monitored by collecting blood samples in which the plasma was isolated from the red blood cells by centrifugation. The serum proteins were precipitated in acetonitrile:methanol:0.2 M trichloroacetic acid (2:2:1, vol:vol mixture). Samples were centrifuged to eliminate precipitated proteins and diluted in buffer containing 1% triton X-100 to lyse the liposomes and analyze 9AC-G quantities by HPLC.

[4] = test system: HCC36 human hepatocellular carcinoma cells; test: Effect of human serum albumin on toxicity to HCC36 cells; type: cell-based; settings: HCC36, human serum albumin 40 mg/mL, 24 hours, 3H-thymidine incorporation
Method: FIG. 35 illustrates the neutralizing effect of human serum albumin on free 9AC-G. Human hepatocellular carcinoma cells (HCC36) were exposed to free 9AC-G with or without human serum albumin (40 mg/mL) for 24 hours. Cell proliferation was observed by ^3H-thymidine incorporation assay. Human serum albumin inhibits the potency of free 9AC-G that is not loaded into liposomes. n=3, Error bars, SD.
FIG. 36 illustrates the inability of human serum albumin to neutralize 9AC-G after liposomal loading. Human hepatocellular carcinoma cells (HCC36) were exposed to liposomal 9AC-G with or without human serum albumin (40 mg/mL) for 24 hours. Cell proliferation was observed by ^3H-thymidine incorporation assay.
Anticancer activity of liposomes loaded with glucuronide-mE to encapsulate glucuronide can be assessed in-vitro or in-vivo. In an in-vitro assay, cancer cell lines can be seeded in wells or plates and various concentrations of liposomal glucuronide can be applied to the cells for a period of time, such as 24 hours, and cell killing can be assayed. Tritiated thymidine can be used to assay cell proliferation. […] Liposomal doxorubicin and liposomal 9AC-G toxicities were assessed with 3 human colon cancer cells (LS174T, HT29, and HCT16), 3 human lung cancer cells (CL1-5, NCI-H2170, and SK-MES-1) and 1 human breast cancer cells (MDA-MB-468). […]

human beta-glucuronidase = molecular target: T1, human beta-glucuronidase (Homo sapiens, UniProt P08236); test: Regeneration of parental drug by beta-glucuronidase at pH 4.5; type: biochemical; settings: pH 4.5 to mimic lysosomes
T1 sequence (P08236 23-651): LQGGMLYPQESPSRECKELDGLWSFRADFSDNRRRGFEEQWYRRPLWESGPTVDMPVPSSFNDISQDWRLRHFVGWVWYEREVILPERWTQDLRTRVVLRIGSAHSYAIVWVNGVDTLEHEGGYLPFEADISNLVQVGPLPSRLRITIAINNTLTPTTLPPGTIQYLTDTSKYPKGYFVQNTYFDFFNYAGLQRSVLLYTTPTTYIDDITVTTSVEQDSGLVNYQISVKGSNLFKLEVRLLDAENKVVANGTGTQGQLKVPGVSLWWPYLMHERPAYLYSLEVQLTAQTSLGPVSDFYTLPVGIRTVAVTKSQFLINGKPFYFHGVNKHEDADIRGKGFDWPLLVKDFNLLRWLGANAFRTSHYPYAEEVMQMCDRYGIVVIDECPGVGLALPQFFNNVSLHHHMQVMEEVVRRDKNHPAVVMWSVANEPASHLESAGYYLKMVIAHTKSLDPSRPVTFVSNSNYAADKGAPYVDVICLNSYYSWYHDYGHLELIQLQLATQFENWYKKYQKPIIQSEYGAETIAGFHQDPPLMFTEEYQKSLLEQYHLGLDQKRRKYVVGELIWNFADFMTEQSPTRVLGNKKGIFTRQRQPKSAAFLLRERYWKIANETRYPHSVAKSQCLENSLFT
Method: FIG. 28 illustrates the reversibility of the conjugation of the glucuronide residue to a parental compound. Here, 9AC was analyzed by HPLC before (1.) and after glucuronide conjugation (2.). […] 9AC-G incubated with human enzyme beta-glucuronidase at pH 4.5 to mimic the lysosomal conditions, could regenerate the original parental drug 9AC (5.). (RFU=relative fluorescent units)
In real conditions, it is extrapolated that liposomal glucuronides can be uptake by cells and that the liposomes can release the glucuronide inside lysosomes after degradation as illustrated in FIG. 29. Illustrations of compound regeneration are provided using 2 examples: 9AC-G (linked by self-immolative chemical linker that is removed upon enzyme hydrolysis, FIG. 30) and fluorescein (directly linked to glucuronide residues, FIG. 31). Effective amounts of 9AC were found in the medium of HCC36 and MDA-MB468 human cancer cells after addition of 9AC-G liposomes. On the other hand, when no cells were present, no 9AC was found, meaning that the regeneration of 9AC was dependent on the cells (FIG. 32). […] To further illustrate the parental compound regeneration ability, we incubated HCC36 cells engineered with LDL-R/anti PEG receptors with liposomal fluorescein-di-G (non-fluorescent). At early time, the liposomes (red) were taken up by the cells and started to colocalize with the lysosomes (magenta). […]

Row | Compound | mice survival (MDA-MB-468 tumors) | effect on tumor growth (MDA-MB-468 tumors) | partition versus corresponding glucuronide [1] | also measured
1 | CC[C@@]1(O)C(=O)OCc2c1cc1n(c2=O)Cc2cc3c(N)cccc3nc2-1 [9AC, 9-aminocamptothecin, reference compound] | not | little effect on the tumor growth | – | –
2 | COC(=O)C1OC(Oc2ccc3c(C)cc(=O)oc3c2)C(O)C(O)C1O (stereo not drawn) [4MU-GmE] | – | – | increased partition into an organic phase | –
3 | 9-aminocamptothecin glucuronide methylester [9AC-GmE] | – | – | increased partition into an organic phase | stability of methylester group at basic pH (saponification to 9AC-G) ([2]; basic pH (8.5), 75° C.): easily is hydrolyzed; stability at acidic pH ([2]; pH 5, 75° C.): very stable
4 | 9-aminocamptothecin glucuronide [9AC-G] | not | little effect on the tumor growth | – | initial half-life [3]: 9.3 min; terminal half-life [3]: 38.6 min; effect of human serum albumin on toxicity [4]: toxicity is suppressed; conversion to parental drug by beta-glucuronidase (human beta-glucuronidase): completely converted to 9AC
